We go through two molecules from US20220213092A1, “BICYCLIC PYRAZOLE BRUTON'S TYROSINE KINASE INHIBITORS” (AbbVie Inc., priority 2020, published 2022).

Read-outs that look alike come from different tables or passages of the source.

Type in all cases: biochemical
The target in one assay is MAP2K2 (Homo sapiens, UniProt P36507). Description: Other kinase MSA: MAP2K2. The settings on record: 30 μM ATP, ERKtide substrate; pre-activation of ERK 30 min, detection after 60 minutes; read-out: IC50, Enzyme MAP2K2. Here is the method: (§1) Kinase activity, unless otherwise indicated, was measured in vitro using an electrophoretic mobility shift assay (MSA). The phosphorylation of a peptide substrate by BTK and other kinases was measured. The kinase reactions were assembled in a total volume of 25 μL per well in 384 well plates. The following was added to each well: compound buffer (or control); enzyme buffer; and substrate buffer, as further described below. […]
MAP2K2, sequence (P36507 whole entry, species assumed): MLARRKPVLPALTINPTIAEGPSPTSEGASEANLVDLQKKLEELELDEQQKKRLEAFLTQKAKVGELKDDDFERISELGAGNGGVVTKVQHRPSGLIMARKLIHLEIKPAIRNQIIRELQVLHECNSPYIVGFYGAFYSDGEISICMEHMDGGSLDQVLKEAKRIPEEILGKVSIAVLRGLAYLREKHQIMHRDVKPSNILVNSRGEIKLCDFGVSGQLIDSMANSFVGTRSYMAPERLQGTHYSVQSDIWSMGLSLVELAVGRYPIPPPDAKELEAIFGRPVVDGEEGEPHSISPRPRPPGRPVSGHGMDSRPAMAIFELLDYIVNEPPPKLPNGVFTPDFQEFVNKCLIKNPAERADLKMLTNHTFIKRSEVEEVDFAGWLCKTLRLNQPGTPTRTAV
(§2) Enzyme and compound/inhibitor were optionally pre-incubated. […] The kinase activity for the kinases in Table 3 were measured at 3 hours incubation time, except that in the case of MAP2K1 and MAP2K2 assay, pre-activation of ERK was done for 30 min with 6 μM of ATP, and then the detection of activated ERK in the presence of compounds was done after 60 minutes of incubation.
(§3) The terminated reactions were analyzed using a 12 channel LABCHIP® 3000 microfluidic detection instrument (available from Caliper Life Sciences, Waltham, Mass.). […] As substrate and product peptides were separated, two peaks of fluorescence were observed. Change in the relative fluorescence intensity of the substrate and product peaks was the parameter measured, reflecting enzyme activity. […] Capillary electrophoregrams (RDA acquisition files) were analyzed using HTS Well Analyzer software (available from Caliper Life Sciences, Waltham, Mass.). […]

The target of another assay is T1, TEC (Homo sapiens, UniProt P42680).
T1 sequence (P42680 1-631): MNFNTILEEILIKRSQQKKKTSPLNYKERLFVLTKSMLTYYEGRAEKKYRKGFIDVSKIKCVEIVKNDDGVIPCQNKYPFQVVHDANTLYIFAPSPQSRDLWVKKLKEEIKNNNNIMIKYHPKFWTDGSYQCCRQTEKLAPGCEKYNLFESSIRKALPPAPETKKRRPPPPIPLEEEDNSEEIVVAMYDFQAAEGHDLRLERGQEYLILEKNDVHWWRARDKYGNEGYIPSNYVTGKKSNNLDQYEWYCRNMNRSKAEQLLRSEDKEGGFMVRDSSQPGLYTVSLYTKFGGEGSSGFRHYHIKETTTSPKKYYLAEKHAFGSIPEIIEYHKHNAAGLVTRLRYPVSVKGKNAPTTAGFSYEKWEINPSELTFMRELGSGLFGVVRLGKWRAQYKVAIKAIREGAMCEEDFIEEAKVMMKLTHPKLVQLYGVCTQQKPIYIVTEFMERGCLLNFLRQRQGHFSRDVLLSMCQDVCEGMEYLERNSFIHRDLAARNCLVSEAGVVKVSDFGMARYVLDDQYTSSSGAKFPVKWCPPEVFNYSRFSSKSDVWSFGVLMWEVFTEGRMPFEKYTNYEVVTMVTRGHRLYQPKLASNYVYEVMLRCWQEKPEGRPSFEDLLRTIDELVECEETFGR
Description: Other kinase MSA: TEC. Here is the method:
as §1, §2, §3

For the next assay, the target named is T2, TXK (Homo sapiens, UniProt P42681).
T2 sequence (P42681 1-527): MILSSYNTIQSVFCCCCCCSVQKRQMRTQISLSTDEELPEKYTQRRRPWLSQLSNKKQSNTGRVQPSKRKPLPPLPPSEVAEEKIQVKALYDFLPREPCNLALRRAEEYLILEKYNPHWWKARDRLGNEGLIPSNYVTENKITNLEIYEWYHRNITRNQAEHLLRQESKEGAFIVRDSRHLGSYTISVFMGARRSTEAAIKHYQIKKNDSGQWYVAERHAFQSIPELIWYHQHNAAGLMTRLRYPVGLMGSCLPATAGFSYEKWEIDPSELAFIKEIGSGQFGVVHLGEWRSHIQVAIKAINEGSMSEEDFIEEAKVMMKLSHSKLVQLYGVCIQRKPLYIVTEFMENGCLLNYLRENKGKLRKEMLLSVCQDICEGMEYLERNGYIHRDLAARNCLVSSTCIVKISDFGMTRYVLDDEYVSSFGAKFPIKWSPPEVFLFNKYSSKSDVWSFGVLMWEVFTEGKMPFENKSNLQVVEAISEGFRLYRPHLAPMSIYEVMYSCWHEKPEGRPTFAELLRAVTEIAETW
Description: Other kinase MSA: TXK. Here is the method: as §1, §2, §3

For `C=CC(=O)N1CCC([C@@H]2CCNc3c(C(N)=O)c(-c4ccc(Oc5ccccc5)cc4)nn32)CC1` [Compound A, reference compound], the IC50 (commonly the concentration needed to halve the response being measured) at MAP2K2 amounted to 75 nM; on TEC (50 μM ATP, SRCtide substrate, 3 hours, read-out: IC50, Enzyme TEC), 0.8 nM; on TXK (100 μM ATP, SRCtide substrate, 3 hours, read-out: IC50, Enzyme TXK) it was 1.9 nM.
For `C=CC(=O)N1CCN([C@@H]2CCNc3c2nn(-c2ccc(Oc4ccccc4)cc2)c3C(N)=O)CC1` [Example 6, (7R)-2-(4-phenoxyphenyl)-7-[4-(prop-2-enoyl)piperazin-1-yl]-4,5,6,7-tetrahydro-2H-pyrazolo[4,3-b]pyridine-3-carboxamide], the IC50 stood at 7800 nM on MAP2K2, 14.7 nM on TEC and 222 nM against TXK.
